{
  "source": "patent US7455859B2",
  "about": "“Highly concentrated bromine compositions and methods of preparation” (Enviro Tech Chemical Services, Inc., priority 2003, dated 2008)",
  "key": {"[1]": {"tested_on": "Pseudomonas aeruginosa", "experiment": "Biocidal performance, plate counting of viable bacteria (Example 20)", "format": "cell-based", "conditions": "nominal 0.2 ppm total halogen as Cl2, phosphate buffer pH 8.5, 10 minutes at 35° C.", "from_the_text": "The biocidal performance of the liquid composition of the present invention was compared to a solution of sodium bromide activated using an equimolar amount of sodium hypochlorite bleach, and a solution prepared from 1-bromo-3-chloro-5,5-dimethylhydantoin (BCDMH). Sterile phosphate buffer samples (pH 8.5) were inoculated with Pseudomonas aeruginosa to give a concentration of approximately 5×10^6 bacteria/ml and then challenged with the test systems at a nominal concentration of 0.2 ppm total halogen (as Cl2).\nAfter a contact time of 10 minutes at 35° C., an aliquot of sodium thiosulfate was added to each sample to neutralize the halogen. The level of viable bacteria in each sample was determined by plate counting. Plates were incubated at 35° C. for 48 hours."}, "[2]": {"conditions": "cited from earlier work"}, "[3]": {"experiment": "Storage stability of anhydrous N-bromosulfamate sodium salt in vacuum dessicator (Example 24)", "format": "physicochemical", "conditions": "three months of storage at room temperature in vacuum dessicator", "procedure": "A further portion of the towel dried crystals from Example 17 was dehydrated by placing in a vacuum dessicator containing molecular sieves. After 15 days, a loss of 31% of the original weight was determined. Although the crystals lost their glass-like appearance, the rhomobohedral shape was retained.\nThe sodium salt of anhydrous N-bromosulfamate was placed back in the vacuum dessicator."}, "[4]": {"experiment": "Heating of crystals in ceramic crucible on hot plate (Example 23)", "format": "physicochemical", "conditions": "towel-dried crystals heated on a hot plate", "from_the_text": "Another large portion of the crystalline mass was dried with a paper towel and placed in a ceramic crucible that was heated on a hot plate."}, "[5]": {"experiment": "Dissolution of crystalline bromine-containing solid in water", "format": "physicochemical", "conditions": "crystalline solid dissolved in water", "from_the_text": "The resulting slurry was stirred as solid sodium hydroxide pellets were charged to the reaction flask. […] As the reaction proceeded, a fine powdery precipitate developed which was removed by vacuum filtration. […] Iodometric titration of the resulting golden yellow solution was used to determine its Br2 content of 27.2% (or 12.1% as Cl2). Within a few minutes, this highly concentrated bromine solution started to turn turbid as crystals began to form. The crystallizing solution was chilled in an ice bath to expedite the development of the crystals. A large crop of yellow crystalline material was separated by vacuum filtration, and the mother liquors were retitrated iodometrically. […] There were no insoluble residues. Iodometric titration of resulting solutions was used to calculate that the crystalline solid contained 29.9% Br2 (13.1% as Cl2).\nTo a stirred reaction flask containing 40% sodium bromide solution was added solid sulfamic acid (82.3 g). The resultant slurry was stirred as 50% sodium hydroxide (60.2 g) was introduced. […] However, the reaction medium became very viscous, and this hampered the mixing efficiency, so deionized water (35.8 g) was added to thin the mixture. The fine powdery precipitate that developed was removed by vacuum filtration. […] The mother liquors were determined to have a bromine content of 20.9% as Br2 (9.3% as Cl2) by iodometric titration. […]"}},
  "note": "Entries after “also recorded” stand apart in the source; their conditions may differ.",
  "data": [
    {"smiles": "CC1(C)C(=O)N(Cl)C(=O)N1Br", "note": "[BCDMH, 1-bromo-3-chloro-5,5-dimethylhydantoin]", "values": [
      {"measurement": "Log Reduction in viable bacteria/ml", "setting": "[1]", "value": 3.3, "unit": "Log"},
      {"measurement": "Viable bacteria/ml after 10 minutes", "setting": "[1]; inoculum approx. 5×10^6 bacteria/ml", "value": "2.5 × 10^3 bacteria/ml"},
      {"measurement": "Water solubility", "setting": "[2]; at 20° C.", "value": 0.1, "unit": "%"}
    ]},
    {"smiles": "O=S(=O)([O-])NBr.[Na+]", "note": "[sodium salt of anhydrous N-bromosulfamate]", "values": [
      {"measurement": "Loss of activity on storage", "setting": "[3]", "value": "not to have lost any activity"}
    ]},
    {"smiles": "O=c1n(Cl)c(=O)n(Cl)c(=O)n1Cl", "note": "[trichloroisocyanuric acid]", "values": [
      {"measurement": "Saturated solution in water", "setting": "[2]; at 25° C.", "value": 1.1, "unit": "% as Cl2"}
    ]},
    {"smiles": "O=S(=O)([O-])NBr.[Na+]", "note": "[Example 17, sodium salt of hydrated N-bromosulfamate]", "values": [
      {"measurement": "Temperature at which water of crystallization boiled off and product decomposed, evolving bromine vapors", "setting": "[4]", "value": "about 221 ° F."},
      {"measurement": "Dissolution in water", "setting": "[5]", "value": "dissolved rapidly and completely; also recorded: dissolved quickly and completely"}
    ]}
  ]
}
